Experimental findings from ChEMBL document CHEMBL1146674, “Effective irreversible alkylating reagents based on the structure of clavulones” (Bioorg Med Chem Lett, 2004) are described below.

The test system of the assay is HeLa. Nature of the assay: Cytotoxicity in HeLa S3 cells (human uterocervical carcinoma) was determined. In kind it is functional, cell-based.
Setting [1] is: Homo sapiens, HeLa, read-out: IC50.

In general, IC50 refers to the midpoint of a concentration-inhibition curve.

For the compound `CC(=O)OC1(CC#Cc2ccccc2)C=CC(=O)C1=Cc1ccccc1` (stereo unspecified), under setting [1], the IC50 came out at 0.024 µM.

`O=C1CC(SCCO)/C(=C\C#Cc2ccccc2)C1C(SCCO)c1ccccc1` (stereo unspecified) gave an IC50 (hela) greater than 1000 µM.

Compound `O=C1CC(SCCO)/C(=C/C#Cc2ccccc2)C1C(SCCO)c1ccccc1` (stereo unspecified) had an IC50 (hela) greater than 1000 µM.

`O=C1CC(SCCO)C(O)(CC#Cc2ccccc2)/C1=C/c1ccccc1` (stereo unspecified): the IC50 under setting [1] stood at 0.021 µM.

For the compound `O=C1C=CC(O)(CC#Cc2ccccc2)/C1=C/c1ccccc1` (stereo unspecified), under setting [1], the IC50 stood at 0.015 µM.

In the case of `O=C1C=CC(CC#Cc2ccccc2)(OC2CCCCO2)/C1=C/c1ccccc1` (stereo unspecified), the IC50 under setting [1] is 1.1 µM.
